Assay results published in ChEMBL document CHEMBL4311959, “Discovery of a potent p38α/MAPK14 kinase inhibitor: Synthesis, in vitro/in vivo biological evaluation, and docking studies” (Eur J Med Chem, 2019).

Legend:
[1] = molecular target: Receptor-type tyrosine-protein kinase FLT3 (Homo sapiens) (UniProt P36888); experiment: Inhibition of human FLT3 at 10 uM using EAIYAAPFAKKK as substrate by [gamma-33P]-ATP assay relative to control
[2] = molecular target: Tyrosine-protein kinase JAK1 (Homo sapiens) (UniProt P23458); experiment: Inhibition of human JAK1 at 10 uM using poly[Glu:Tyr] (4:1) as substrate by [gamma-33P]-ATP assay relative to control
[3] = molecular target: Insulin receptor (Homo sapiens) (UniProt P06213); experiment: Inhibition of human IR at 10 uM using poly[Glu:Tyr] (4:1) as substrate by [gamma-33P]-ATP assay relative to control
[4] = molecular target: Tyrosine-protein kinase Tec (Homo sapiens) (UniProt P42680); experiment: Inhibition of human TEC at 10 uM using poly[Glu:Tyr] (4:1) as substrate by [gamma-33P]-ATP assay relative to control
Sequence of Tyrosine-protein kinase Tec (Homo sapiens) (P42680 whole entry): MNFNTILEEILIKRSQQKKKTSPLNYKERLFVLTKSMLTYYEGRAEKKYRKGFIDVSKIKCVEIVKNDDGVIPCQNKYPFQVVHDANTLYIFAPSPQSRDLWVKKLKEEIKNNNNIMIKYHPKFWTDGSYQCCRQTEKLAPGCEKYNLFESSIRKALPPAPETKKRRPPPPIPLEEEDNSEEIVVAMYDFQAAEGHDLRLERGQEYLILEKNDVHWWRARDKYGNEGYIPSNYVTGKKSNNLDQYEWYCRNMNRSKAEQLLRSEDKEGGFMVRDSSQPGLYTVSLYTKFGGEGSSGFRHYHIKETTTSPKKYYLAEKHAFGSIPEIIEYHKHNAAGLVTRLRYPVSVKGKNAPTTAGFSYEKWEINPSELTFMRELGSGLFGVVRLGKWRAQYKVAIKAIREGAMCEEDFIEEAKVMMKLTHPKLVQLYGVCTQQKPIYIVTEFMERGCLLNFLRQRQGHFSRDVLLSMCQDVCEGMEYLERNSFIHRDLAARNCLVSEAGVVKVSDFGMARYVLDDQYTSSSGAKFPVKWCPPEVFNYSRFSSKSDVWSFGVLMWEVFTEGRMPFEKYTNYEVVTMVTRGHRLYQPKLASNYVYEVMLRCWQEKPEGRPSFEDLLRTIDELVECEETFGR

[5] = molecular target: T1, Mitogen-activated protein kinase 14 (Homo sapiens, UniProt Q16539); experiment: Inhibition of human p38alpha using MBP as substrate by [gamma-33P]-ATP assay
T1 sequence (Q16539 whole entry): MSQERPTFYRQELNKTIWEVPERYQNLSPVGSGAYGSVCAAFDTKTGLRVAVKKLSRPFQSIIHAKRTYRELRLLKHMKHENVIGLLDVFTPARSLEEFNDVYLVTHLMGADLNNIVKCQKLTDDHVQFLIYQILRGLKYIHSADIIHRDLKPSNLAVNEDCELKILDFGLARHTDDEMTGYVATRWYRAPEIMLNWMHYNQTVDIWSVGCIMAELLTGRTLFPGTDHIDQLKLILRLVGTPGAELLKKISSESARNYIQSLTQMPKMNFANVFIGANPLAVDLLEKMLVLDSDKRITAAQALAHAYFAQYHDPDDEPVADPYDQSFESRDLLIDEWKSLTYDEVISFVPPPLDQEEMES

[6] = Half life in Sprague-Dawley rat at 10 mg/kg, po measured for each 30 mins by LC-MS/MS analysis; assay type: ADME, organism-based; conditions: in vivo
THP-1 = experiment: Inhibition of LPS-induced TNFalpha production in human THP1 cells incubated for 1 hr followed by LPS stimulation and measured after 4 hrs by TR-FRET method; assay type: functional, cell-based
[7] = Oral bioavailability in Sprague-Dawley rat at 10 mg/kg measured for each 30 mins by LC-MS/MS analysis; assay type: ADME, organism-based; conditions: in vivo
[8] = molecular target: ALK tyrosine kinase receptor (Homo sapiens) (UniProt Q9UM73); experiment: Inhibition of human ALK at 10 uM using poly[Glu:Tyr] (4:1) as substrate by [gamma-33P]-ATP assay relative to control
Sequence of ALK tyrosine kinase receptor (Homo sapiens) (Q9UM73 19-1620 limits assumed): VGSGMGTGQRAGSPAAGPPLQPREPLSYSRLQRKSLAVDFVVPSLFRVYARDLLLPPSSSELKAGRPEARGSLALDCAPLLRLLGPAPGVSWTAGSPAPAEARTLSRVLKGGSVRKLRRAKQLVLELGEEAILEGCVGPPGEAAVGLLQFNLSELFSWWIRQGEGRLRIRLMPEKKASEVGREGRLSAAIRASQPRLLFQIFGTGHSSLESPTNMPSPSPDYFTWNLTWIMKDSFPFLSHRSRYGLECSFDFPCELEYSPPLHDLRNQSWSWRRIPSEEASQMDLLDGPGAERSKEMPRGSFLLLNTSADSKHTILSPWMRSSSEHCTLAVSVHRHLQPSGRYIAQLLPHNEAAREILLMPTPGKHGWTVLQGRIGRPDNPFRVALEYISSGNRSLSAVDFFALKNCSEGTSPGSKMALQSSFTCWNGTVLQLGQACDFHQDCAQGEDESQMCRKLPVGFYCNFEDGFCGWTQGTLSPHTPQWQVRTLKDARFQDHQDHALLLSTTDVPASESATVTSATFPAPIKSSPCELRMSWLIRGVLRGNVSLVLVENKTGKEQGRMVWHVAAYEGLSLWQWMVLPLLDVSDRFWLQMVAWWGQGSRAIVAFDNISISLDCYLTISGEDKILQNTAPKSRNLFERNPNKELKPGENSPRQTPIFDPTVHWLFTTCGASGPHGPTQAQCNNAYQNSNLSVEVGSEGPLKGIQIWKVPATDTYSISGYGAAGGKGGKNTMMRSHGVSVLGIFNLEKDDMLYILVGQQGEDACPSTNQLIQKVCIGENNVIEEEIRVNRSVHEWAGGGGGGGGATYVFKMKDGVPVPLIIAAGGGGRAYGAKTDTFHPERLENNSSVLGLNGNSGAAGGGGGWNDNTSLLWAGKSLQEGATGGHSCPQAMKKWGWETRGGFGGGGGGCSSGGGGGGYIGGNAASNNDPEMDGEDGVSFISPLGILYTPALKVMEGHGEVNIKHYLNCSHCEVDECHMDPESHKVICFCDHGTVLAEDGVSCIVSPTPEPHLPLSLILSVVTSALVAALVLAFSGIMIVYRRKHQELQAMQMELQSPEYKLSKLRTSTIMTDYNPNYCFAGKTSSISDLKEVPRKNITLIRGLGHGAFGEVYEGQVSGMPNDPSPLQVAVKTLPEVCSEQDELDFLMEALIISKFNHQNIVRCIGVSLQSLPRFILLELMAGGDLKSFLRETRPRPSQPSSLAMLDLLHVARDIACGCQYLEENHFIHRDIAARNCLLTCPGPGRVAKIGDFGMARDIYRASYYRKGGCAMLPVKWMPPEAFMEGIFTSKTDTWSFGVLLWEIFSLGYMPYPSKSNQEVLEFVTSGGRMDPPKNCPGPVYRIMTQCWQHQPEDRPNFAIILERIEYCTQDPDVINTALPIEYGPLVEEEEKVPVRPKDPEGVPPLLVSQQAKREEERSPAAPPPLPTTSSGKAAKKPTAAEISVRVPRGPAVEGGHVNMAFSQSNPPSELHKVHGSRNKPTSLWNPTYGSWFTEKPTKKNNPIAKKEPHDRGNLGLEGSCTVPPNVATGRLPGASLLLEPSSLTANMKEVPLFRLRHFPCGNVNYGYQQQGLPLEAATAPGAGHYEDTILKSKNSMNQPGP

[9] = molecular target: Epidermal growth factor receptor (Homo sapiens) (UniProt P00533); experiment: Inhibition of human EGFR at 10 uM using poly[Glu:Tyr] (4:1) as substrate by [gamma-33P]-ATP assay relative to control
[10] = molecular target: Receptor tyrosine-protein kinase erbB-4 (Homo sapiens) (UniProt Q15303); experiment: Inhibition of human ERBB4 at 10 uM using poly[Glu:Tyr] (4:1) as substrate by [gamma-33P]-ATP assay relative to control
[11] = molecular target: Macrophage colony-stimulating factor 1 receptor (Homo sapiens) (UniProt P07333); experiment: Inhibition of human FMS at 10 uM using poly[Glu:Tyr] (4:1) as substrate by [gamma-33P]-ATP assay relative to control
Sequence of Macrophage colony-stimulating factor 1 receptor (Homo sapiens) (P07333 whole entry): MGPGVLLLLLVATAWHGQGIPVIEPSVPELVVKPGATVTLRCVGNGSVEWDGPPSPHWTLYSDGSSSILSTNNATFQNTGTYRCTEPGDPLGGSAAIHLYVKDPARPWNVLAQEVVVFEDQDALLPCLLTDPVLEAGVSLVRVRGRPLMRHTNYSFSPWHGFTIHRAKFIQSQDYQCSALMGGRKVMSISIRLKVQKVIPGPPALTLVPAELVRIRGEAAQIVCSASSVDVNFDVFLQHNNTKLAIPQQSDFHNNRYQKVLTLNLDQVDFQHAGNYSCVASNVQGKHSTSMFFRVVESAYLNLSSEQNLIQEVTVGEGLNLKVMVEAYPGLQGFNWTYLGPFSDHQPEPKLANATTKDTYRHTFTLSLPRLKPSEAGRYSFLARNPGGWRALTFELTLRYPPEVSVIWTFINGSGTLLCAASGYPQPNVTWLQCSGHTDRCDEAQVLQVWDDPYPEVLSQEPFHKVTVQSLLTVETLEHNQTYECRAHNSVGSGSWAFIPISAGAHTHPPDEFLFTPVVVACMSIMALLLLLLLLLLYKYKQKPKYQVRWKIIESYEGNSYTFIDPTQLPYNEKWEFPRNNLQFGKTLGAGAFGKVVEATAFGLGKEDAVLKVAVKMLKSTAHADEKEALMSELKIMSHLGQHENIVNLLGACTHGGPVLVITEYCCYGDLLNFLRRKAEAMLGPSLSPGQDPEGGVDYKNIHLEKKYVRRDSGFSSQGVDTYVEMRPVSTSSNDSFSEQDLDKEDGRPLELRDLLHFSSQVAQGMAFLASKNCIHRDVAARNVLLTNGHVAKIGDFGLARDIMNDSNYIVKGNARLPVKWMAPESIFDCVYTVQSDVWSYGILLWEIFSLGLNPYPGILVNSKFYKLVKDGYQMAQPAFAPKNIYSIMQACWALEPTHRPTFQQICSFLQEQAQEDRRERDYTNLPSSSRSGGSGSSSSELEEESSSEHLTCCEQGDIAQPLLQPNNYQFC

[12] = molecular target: T1, Mitogen-activated protein kinase 14; experiment: Inhibition of human p38alpha at 10 uM using MBP as substrate by [gamma-33P]-ATP assay relative to control
[13] = Cmax in Sprague-Dawley rat at 10 mg/kg, po measured for each 30 mins by LC-MS/MS analysis; assay type: ADME, organism-based; design: dose 10 mg/kg, route oral; conditions: in vivo
[14] = molecular target: Fibroblast growth factor receptor 1 (Homo sapiens) (UniProt P11362); experiment: Inhibition of human FGFR1 at 10 uM using KKKSPGEYVNIEFG as substrate by [gamma-33P]-ATP assay relative to control
Sequence of Fibroblast growth factor receptor 1 (Homo sapiens) (P11362 22-822 limits assumed): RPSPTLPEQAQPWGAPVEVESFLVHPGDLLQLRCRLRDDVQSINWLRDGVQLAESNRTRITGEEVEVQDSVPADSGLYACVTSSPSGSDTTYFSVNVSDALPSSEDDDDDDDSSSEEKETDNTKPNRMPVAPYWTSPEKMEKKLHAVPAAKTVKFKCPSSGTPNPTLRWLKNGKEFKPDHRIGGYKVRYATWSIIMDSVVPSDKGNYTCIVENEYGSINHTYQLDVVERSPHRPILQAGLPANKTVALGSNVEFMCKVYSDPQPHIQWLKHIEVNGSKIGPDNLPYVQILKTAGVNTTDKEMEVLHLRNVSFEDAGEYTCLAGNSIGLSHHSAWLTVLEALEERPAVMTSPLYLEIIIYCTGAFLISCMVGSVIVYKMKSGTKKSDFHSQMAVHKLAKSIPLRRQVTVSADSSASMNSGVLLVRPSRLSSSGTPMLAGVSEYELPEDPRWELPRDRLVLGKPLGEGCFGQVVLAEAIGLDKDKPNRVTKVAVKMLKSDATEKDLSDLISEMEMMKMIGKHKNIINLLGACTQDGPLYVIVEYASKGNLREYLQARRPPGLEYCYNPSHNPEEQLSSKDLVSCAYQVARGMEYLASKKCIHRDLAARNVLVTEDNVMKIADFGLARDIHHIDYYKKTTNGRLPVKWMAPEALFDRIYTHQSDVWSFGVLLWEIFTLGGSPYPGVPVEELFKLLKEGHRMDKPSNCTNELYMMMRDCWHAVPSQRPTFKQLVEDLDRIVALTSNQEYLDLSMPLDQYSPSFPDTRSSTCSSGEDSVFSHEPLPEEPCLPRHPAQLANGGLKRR

[15] = molecular target: T2, RAF proto-oncogene serine/threonine-protein kinase (Homo sapiens, UniProt P04049); experiment: Inhibition of human RAF1 using MEK1 as substrate by [gamma-33P]-ATP assay
T2 sequence (P04049 whole entry): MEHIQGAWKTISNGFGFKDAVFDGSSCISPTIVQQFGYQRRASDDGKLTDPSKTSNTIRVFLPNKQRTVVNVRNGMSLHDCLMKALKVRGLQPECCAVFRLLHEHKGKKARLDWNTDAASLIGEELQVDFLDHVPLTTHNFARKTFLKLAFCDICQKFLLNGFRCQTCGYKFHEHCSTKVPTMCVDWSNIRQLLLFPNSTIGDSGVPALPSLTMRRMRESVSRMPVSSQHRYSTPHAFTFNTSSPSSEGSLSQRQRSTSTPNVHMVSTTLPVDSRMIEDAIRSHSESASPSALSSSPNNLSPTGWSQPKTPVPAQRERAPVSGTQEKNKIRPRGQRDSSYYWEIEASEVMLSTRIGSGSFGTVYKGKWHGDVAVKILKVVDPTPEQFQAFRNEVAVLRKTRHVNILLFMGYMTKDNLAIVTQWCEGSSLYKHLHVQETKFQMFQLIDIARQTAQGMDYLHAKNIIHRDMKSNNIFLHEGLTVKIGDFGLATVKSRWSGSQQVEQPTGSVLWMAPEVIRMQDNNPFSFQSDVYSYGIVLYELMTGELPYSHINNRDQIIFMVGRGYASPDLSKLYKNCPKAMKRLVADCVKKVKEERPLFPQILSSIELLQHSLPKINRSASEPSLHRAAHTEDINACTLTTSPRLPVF

[16] = Clearance in Sprague-Dawley rat at 10 mg/kg, iv measured for each 30 mins by LC-MS/MS analysis; assay type: ADME, organism-based; conditions: in vivo
[17] = molecular target: T2, RAF proto-oncogene serine/threonine-protein kinase; experiment: Inhibition of human RAF1 at 10 uM using MEK1 (K97R) as substrate by [gamma-33P]-ATP assay relative to control
[18] = molecular target: Serine/threonine-protein kinase B-raf (Homo sapiens, UniProt P15056, V600E); experiment: Inhibition of human BRAF V600E mutant using MEK1 as substrate by […]-ATP assay
[19] = molecular target: T1, Mitogen-activated protein kinase 14; experiment: Inhibition of recombinant Nanoluc-tagged p38alpha (unknown origin) expressed in HEK293 cells incubated for 2 to 3 mins by NanoBRET assay; assay type: cell-based
[20] = molecular target: Vascular endothelial growth factor receptor 2 (Homo sapiens) (UniProt P35968); experiment: Inhibition of human KDR at 10 uM using poly[Glu:Tyr] (4:1) as substrate by [gamma-33P]-ATP assay relative to control
Homo sapiens [21] = species: Homo sapiens; experiment: Selectivity index, ratio of IC50 for human ERG to IC50 for human p38alpha
[22] = AUClast in Sprague-Dawley rat at 10 mg/kg, po measured for each 30 mins by LC-MS/MS analysis; assay type: ADME, organism-based; design: dose 10 mg/kg, route oral, time 0 - last; conditions: in vivo
[23] = molecular target: Hepatocyte growth factor receptor (Homo sapiens, UniProt P08581); experiment: Inhibition of human c-MET using KKKSPGEYVNIEFG as substrate by [gamma-33P]-ATP assay
[24] = molecular target: Receptor tyrosine-protein kinase erbB-2 (Homo sapiens) (UniProt P04626); experiment: Inhibition of human ERBB2 at 10 uM using poly[Glu:Tyr] (4:1) as substrate by [gamma-33P]-ATP assay relative to control
[25] = Stability in human plasma assessed as remaining compound at 10 uM incubated for 120 mins by LC-MS analysis; assay type: ADME, cell-free; conditions: read-out: Stability
[26] = Half life in Sprague-Dawley rat at 10 mg/kg, iv measured for each 30 mins by LC-MS/MS analysis; assay type: ADME, organism-based; conditions: in vivo
Homo sapiens [27] = species: Homo sapiens; experiment: Selectivity index, ratio of IC50 for human RAF1 to IC50 for human p38alpha
[28] = molecular target: RAC-alpha serine/threonine-protein kinase (Homo sapiens) (UniProt P31749); experiment: Inhibition of human AKT1 at 10 uM using KGSGSGRPRTSSFAEG as substrate by [gamma-33P]-ATP assay relative to control

**Q.** Which results are given for `COc1ccc(-c2nn(-c3cccc(NC(=O)c4cccc(C(F)(F)F)c4)c3)cc2-c2ccncc2)cc1Cl`?
**A.** inhibition [1]: -5.65%; inhibition [2]: -7.68%; inhibition [3]: -0.36%; inhibition [4]: -3.79%; IC50 [5]: 22 nM; half-life [6]: 438 min; IC50 (THP-1): 58 nM; bioavailability [7]: 11.3%; inhibition [8]: 3.5%; inhibition [9]: 24.5%; inhibition [10]: 26.9%; inhibition [11]: 19%; inhibition [12]: 94.6%; Cmax [13]: 33.2 ng/mL; inhibition [14]: 24.4%; IC50 [15]: 336 nM; clearance [16]: 90 mL/min/kg; inhibition [17]: 90.5%; IC50 [18]: 158 nM; EC50 [19]: 520 nM; inhibition [20]: 13.2%; Ratio IC50 (Homo sapiens [21]): 23.8; AUC(0-t) at 0.5 h [22]: 164 ng·h/mL; IC50 [23]: > 10 µM; inhibition [24]: 20.4%; remaining at 2 h, 10 µM [25]: 98.4%; half-life [26]: 384 min; Ratio IC50 (Homo sapiens [27]): 15.3; inhibition [28]: 7.06%
